# Laboratory results from the SangsterLogP compilation.
# Assay: method code SF-AS, from DOI: 10.1002/qsar.19890080102
Structure (SMILES),logD (pH 1.5),logD (pH 5.5)
NS(=O)(=O)c1cccc(S(N)(=O)=O)c1,-0.5,
NS(=O)(=O)c1ccc(I)cc1,1.55,
Nc1cccc(S(N)(=O)=O)c1,,-0.32
CC(C)c1ccc(S(N)(=O)=O)cc1,1.71,
NS(=O)(=O)c1cccc(I)c1,1.58,
CCCCOc1cccc(S(N)(=O)=O)c1,2.06,
CS(=O)(=O)Nc1ccc(S(N)(=O)=O)cc1,-0.4,
CCCCOc1ccc(S(N)(=O)=O)cc1,2.05,
NS(=O)(=O)c1ccc(Br)cc1,1.34,
NS(=O)(=O)c1ccc(-c2ccccc2)cc1,2.24,
NS(=O)(=O)c1cccc(Br)c1,1.35,
NS(=O)(=O)c1cccc(Cl)c1,1.16,
CC(C)c1cccc(S(N)(=O)=O)c1,1.66,
